Our source for the AC35 and activity change, negative = toxicity values is PubChem BioAssay AID624265 (Broad Institute, 2012).

Active and inactive are the calls of the source.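 Rule for the calls: active = at a dose no more than twice the top valid tested dose, the fitted curve drops below -35% activity change; inactive = the rest, rising-direction activity included.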

Assay [1] concerns NIH3T3 viability, CellTiter-Glo ATP luminescence. Description: cytotoxicity in NIH3T3 fibroblasts, dose response, cytotoxicity control for HSP40 inhibitor project, cell-based, CellTiter-Glo luminescence, cherry-pick, set 2 (AID 624265).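 For activity change, negative = toxicity: 0% = median neutral control signal and -100% = no luminescence left.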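 Note: cells exposed to compound for 48 hours before the ATP read.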 A general note: In ATP-based viability assays light output follows the ATP content of the culture.
Test in assay [2]: as above
The settings on record: NIH3T3 viability, CellTiter-Glo ATP luminescence; at 50 µM (top of the series).

Take `CNc1ccc2oc(C[C@H]3O[C@@]4(CC[C@H]3C)O[C@H]([C@H](C)C(=O)c3ccc[nH]3)[C@H](C)C[C@H]4C)nc2c1C(=O)O`: the AC35 in assay [1] was 11.1 µM. On the same count and under the same terms, under `CCCCNc1c(-c2cccc(Sc3ccc(OC)cc3)c2)nc2ccccn12` stands 39.2 µM. On the same count and under the same terms, under `CN(C)c1nc(-c2ccccn2)nnc1-c1ccccc1` stands 43.5 µM; under `CCOC(=O)c1cc2c(=Cc3ccc(N(C)C)cc3)c3ccccc3n2[n+]1C`, 29 µM. Same read-out and setting: under `Cc1cccc2sc(NNC(=O)c3ccc(S(=O)(=O)N4CCCC(C)C4)cc3)nc12` (configuration not stated) stands 40.5 µM. As for `COc1cccc(/C=N/Nc2ncnc(Cl)c2N)c1O`, the AC35 in assay [1] is 47.2 µM.

Turning to `CN(C)c1ccc(C=c2c3ccccc3n3c2c2c([n+]3C)CCCC2)cc1`, the AC35 in assay [1] is 33.3 µM.

Consider `Cc1ccc(S(=O)(=O)Nc2ccc(O)c3cccnc23)cc1`, for which the AC35 in assay [1] was 33 µM. `CCCCOC(=O)/C=C/c1ccc(OC(=O)OC)c(OC(=O)OC)c1`: the AC35 in assay [1] was 50.7 µM. Regarding `Nc1cc2nc3ccccc3oc-2cc1=O`, the AC35 in assay [1] is 28 µM. The same measure, in the same setting: under `CCCCNc1c(-c2cccc(-c3ccc(OC)cc3)c2)nc2ccc(C)cn12` stands 22.7 µM.

`Cc1oc2c(c1C(=O)c1ccccc1)C(=O)C(=O)c1ccccc1-2`: the AC35 in assay [1] was 8.43 µM. Same read-out and setting: under `CN(Cc1ccc(Cl)s1)C(=O)CCl` stands 25 µM; under `CC1=CC(=O)C=C(C)C1=NOS(=O)(=O)c1ccccc1`, 27.6 µM; under `CC(=O)C1=C(c2ccc(Br)cc2)C(=O)c2ccccc2C1=O`, 26.2 µM. As to `CCCOc1ccc2ccccc2c1/C=C1\SC(=O)NC1=O`, the activity change, negative = toxicity in assay [2] was 6.17% (inactive). As for `Cc1ccc(O)c(-c2cc(-c3ccccc3C)[nH]n2)c1`, the activity change, negative = toxicity in assay [2] is -5.19% (inactive).

For `O=P(Nc1cccnc1)(Oc1ccccc1Cl)Oc1ccccc1Cl`, the activity change, negative = toxicity in assay [2] is -1.87% (inactive).

For the molecule `COc1ccc2[nH]c(=O)c(CN(Cc3cccnc3)C(=O)Nc3ccccc3)cc2c1`, in assay [2], the activity change, negative = toxicity is -11.7% (inactive).

For the molecule `O=C(CCCSc1ccccc1)Nc1nc(-c2ccccn2)cs1`, the activity change, negative = toxicity in assay [2] was -1.21% (inactive). As for `CN1CCN(C(=O)c2cc(COc3ccc(F)cc3Cl)on2)CC1c1ccccc1` (configuration not stated), the activity change, negative = toxicity in assay [2] is 14.2% (inactive).

For `Cc1cc(/C=C2\SC(=S)N(C)C2=O)c(C)n1-c1ccc(O)cc1`, in assay [2], the activity change, negative = toxicity is 6.11% (inactive). On to `O=C(N/N=C/c1ccc[nH]1)c1sc2ccccc2c1Cl`, for which, in assay [2], the activity change, negative = toxicity was -15.3% (inactive). Still for that read-out and setting: for `c1ccc(Cn2cc(-c3cccnc3)cn2)cc1` the value was -0.362% (inactive); for `CCCCC(CC)c1nnc(NC(=O)c2cccs2)s1` (configuration not stated), -1.51% (inactive); for `COc1cccc(/C=N/NC(=O)c2nc(-c3ccccc3)cc(-c3ccccc3)n2)c1O`, -8.68% (inactive). Same read-out and setting: under `Cc1nc2ccc(C(C(F)(F)F)(C(F)(F)F)C(F)(F)F)cc2[nH]1` stands 3.14% (inactive); under `Cc1ccc(Nc2cc(C)nn2-c2nc(C)cc(C)n2)cc1`, -3.61% (inactive).

For the molecule `Cc1ccc(-n2nnnc2SCC(=O)N2CCc3ccccc3C2)c(C)c1`, the activity change, negative = toxicity in assay [2] was 3.85% (inactive). On the same count and under the same terms, under `Clc1ccc(C2=NCCN2)cc1` stands 6.22% (inactive). Still for that read-out and setting: for `Cc1ccc(NC(=S)c2nc3ccccc3[nH]2)c(C)c1` the value was -2.47% (inactive). For `O=C(COc1ccc([N+](=O)[O-])cc1)Nc1nc(-c2ccccn2)cs1`, the activity change, negative = toxicity in assay [2] is -17.8% (inactive). On the same count and under the same terms, for `OCCN(CCO)c1cc2c3ccccc3ccc2c2ccccc12` the value was -14.3% (inactive); for `Oc1ccccc1-c1cc(-c2ccc3c(c2)OCCO3)n[nH]1`, -2.25% (inactive). Still for that read-out and setting: for `S=C(NCc1ccco1)Nc1ccc(Oc2ccc(Cl)cc2)cc1` the value was 10.2% (inactive); for `Cc1nn(CCC#N)c(N)c1C1(O)C(=O)Nc2c(Cl)cc(Cl)cc21` (configuration not stated), -6.69% (inactive); for `COc1ccccc1-c1sc2cc3c(cc2c1C#Cc1cncn1C)OCO3`, 17.2% (inactive). On the same count and under the same terms, for `CC12CCC(O)CC1=CCC1C2CCC2(C)C3=NN=CC3CC12` (configuration not stated) the value was 6.4% (inactive); for `Cc1ccsc1/C=C/c1ccc2cccc(O)c2n1`, -8.21% (inactive); for `O=S1OC(c2ccccc2)c2cc(Cl)ccc21` (configuration not stated), 8.75% (inactive). For `Cc1ccc(NC2(c3nnnn3-c3c(C)cccc3C)CCCCC2)cc1`, in assay [2], the activity change, negative = toxicity was 0.981% (inactive).

For the molecule `CCN(CC)C(=O)CSc1ncnc2sc(-c3ccccc3)cc12`, the activity change, negative = toxicity in assay [2] was 9.41% (inactive).
